Test results taken from patent US6090987A, “Metal-ligand complex catalyzed processes” (Union Carbide Chemicals & Plastics Technology Corporation, priority 1998, dated 2000).

Key:
[1] = Residual propylene hydroformylation activity after heat treatment, Ligand D catalyst (Table 1); settings: 125° C./50 hours, excess diene checked
Method: About 20 milliliters of the solution was charged to a glass reactor via a syringe after purging the reactor with nitrogen (see Examples 14-20 below). After closing the reactor, the system was again purged with nitrogen and place in an oil bath heated to 100° C. The hydroformylation reaction in each experiment was conducted at a total gas pressure of 160 psig. The target partial pressure of hydrogen, carbon monoxide, and propylene being about 45 psia, 45 psia, and 5 psia respectively, with the remainder being nitrogen. The flows of the feed gases (carbon monoxide, hydrogen, propylene, and nitrogen) were controlled individually with mass flow meters. The feed gases were dispersed into the precursor solution via stainless steel 7-micron filters used as spargers. The unreacted portion of the feed gases stripped out the product aldehydes. Each experiment was operated for 24 hours under the above conditions. The activity is defined as the observed reaction rate divided by the predicted reaction rate. The reaction rates are expressed in terms of gram moles per liter per hour.
The same procedure as in Example 3 was followed except 2 milliliters of 1,3-butadiene was added to the generated catalyst and stirred for 5 minutes. Excess 1,3-butadiene was then removed by alternate evacuation and flushing with nitrogen. The resulting solution was heated at 125° C. as in Example 2, and 20 milliliters of the resulting solution was transferred to a glass reactor as in Example 2 and the activity determined.
The same procedure as in Example 4 was followed except Ligand D (as identified herein) was employed in place of Ligand F. The results are given in Table 1.
The same procedure as in Example 10 was followed except the fresh catalyst solution contained Ligand D in place of Ligand F. The results are given in Table 1.

[2] = Long term catalyst stability, cycling between hydroformylation and simulated vaporizer conditions (Table 2, FIG. 2); settings: for Percent Deactivation/Day: butadiene 2 psi
Method: A series of long term catalyst stability experiments were conducted in the glass reactors in a continuous propylene hydroformylation mode. The reactor consisted of a three ounce pressure bottle submersed in an oil bath with a glass front for viewing. In each example about 20 milliliters of a freshly prepared rhodium catalytic precursor solution was charged to the reactor with a syringe after purging the system with nitrogen. Each precursor solution contained 200 parts per million of rhodium (calculated as free rhodium) introduced as rhodium dicarbonyl acetylacetonate, Ligand F and tetraglyme. The amount of Ligand F (free) employed was 0.4 weight percent.
After closing the reactor, the system was again purged with nitrogen and the oil bath was heated to 80° C., in order to furnish the desired hydroformylation. The hydroformylation reaction in each experiment was conducted at a total gas pressure of about 165 psig, the target partial pressure pressures of hydrogen, carbon monoxide, and propylene being about 45 psia, 45 psia, and 5 psia, respectively, the remainder being nitrogen. The flows of the feed gases (carbon monoxide, hydrogen, propylene, and nitrogen) were controlled individually with mass flow meters. The feed gases were dispersed into the precursor solution via stainless steel 7-micron filters used as spargers. The unreacted portion of the feed gases stripped out the product aldehydes. Examples 14, 15 and 16 were conducted at 80° C. for 2 hours. The feed gases were then turned off and either pure nitrogen or an 88 mole percent nitrogen, 12 mole percent butadiene mixture was fed to the reactor (see Table 2). The pressure of the reactor was then let down to the appropriate pressure so that the target butadiene pressure in the reactor could be achieved. The oil bath temperature was then ramped to 125° C. over a 5 minute period. The bath remained at 125° C. for 10 minutes. The bath was then cooled to 80° C. over a 6 minute period. […]

[3] = Decomposition of free Ligand F and deactivated complex formation at 145° C. by HPLC (FIG. 3); type: physicochemical; settings: for deactivated complex concentration / free Ligand F concentration: 45 psig, treated with 1 ml 1,3-butadiene
Method: A catalyst solution (5 milliliters), 600 parts per million in rhodium and 0.8 weight percent in Ligand F generated as in Example 2 was charged to a 3 ounce Fisher Porter bottle and alternately flushed evacuated with nitrogen, then placed in a 145° C. oil bath under nitrogen (80 psig total pressure) and then monitored by HPLC at 1 and 3 hours for the Ligand F and deactivated complex concentrations. The free Ligand F concentration was 0.75, 0.57 and 0.37 weight percent at 0, 1 and 3 hours, respectively, while the deactivated complex concentration was 0.010, 0.57 and 0.89 weight percent at 0, 1 and 3 hours respectively.
The same procedure as in Example 21 was followed except the catalyst solution was treated with 1 milliliter of 1,3-butadiene and then heated at 145° C. for 3 hours (45 psig total pressure). The free Ligand F concentration measured by HPLC (high pressure liquid chromatography) was 0.75, 0.66, and 0.62 weight percent at 0, 1 and 3 hours, respectively, while the deactivated complex concentration was 0.010, 0.012, and 0.05 weight percent at 0, 1 and 3 hours respectively.

C=CC=C [Butadiene, 1,3-butadiene]
% Activity [1]: 116% | Final Rate [1]: 1.23 gram moles per liter per hour | influence on the catalyst (FIG. 2) ([2]; cycling between 80° C. hydroformylation and 125° C. simulated vaporizer): stabilizing influence | Percent Deactivation/Day ([2]; separation temperature 125° C., butadiene/Rh molar ratio 45): 5 Percent/Day | Percent Deactivation/Day ([2]; separation temperature 135° C., butadiene/Rh molar ratio 55): 5 Percent/Day | deactivated complex concentration ([3]; 0 hours): 0.010 weight percent | free Ligand F concentration ([3]; 0 hours): 0.75 weight percent | deactivated complex concentration ([3]; 1 hour): 0.012 weight percent | free Ligand F concentration ([3]; 1 hour): 0.66 weight percent | deactivated complex concentration ([3]; 3 hours): 0.05 weight percent | free Ligand F concentration ([3]; 3 hours): 0.62 weight percent | decomposition of free Ligand F (FIG. 3) ([3]; prior complexation of catalyst with butadiene): suppresses decomposition of free Ligand F
